# Results published in US20220073536A1 (Rigel Pharmaceuticals, Inc., priority 2003, published 2022).
# Legend:
# [1] = test system: cultured human mast cells (CHMC); experiment: CHMC low cell density IgE activation: tryptase assay; type: cell-based; conditions: low cell density CHMC, IgE activation, tryptase release
# Procedure, shortened: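 Tryptase release was read from supernatant with a fluorogenic substrate (30 min, room temperature) after anti-IgE challenge of cultured human mast cells (1000–1500 cells/well, low density) for 30 minutes at 37° C.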
# [2] = test system: cultured human mast cells (CHMC); experiment: CHMC low cell density ionomycin activation: tryptase assay; type: cell-based; conditions: low cell density CHMC, tryptase release, 3 pt, read-out: LD Tryptase, CHMC, Iono, 3 pt
# [3] = 3 pt, read-out: LD Tryptase, CHMC, IgE, 3 pt
# [4] = 8 pt, read-out: LD Tryptase, CHMC, IgE, 8 pt
# [5] = Homo sapiens, Mast cell, 3 pt, read-out: LD Tryptase, CHMC, IgE, 3 pt
# [6] = Homo sapiens, Mast cell, 8 pt, read-out: LD Tryptase, CHMC, IgE, 8 pt
"IC50 [1, 3] [µM]","IC50 [1, 4] [µM]",IC50 [2] [µM],"IC50 [1, 5] [µM]","IC50 [1, 6] [µM]","IC50 ([2]; Homo sapiens, Mast cell) [µM]",SMILES
< 10,< 10,> 10,–,–,–,"COc1cc(C)c(Nc2ncc(F)c(Nc3ccc4c(c3)NC(C)(C)CO4)n2)cc1Cl [Compound 216, N2-(3-Chloro-4-methoxy-6-methylphenyl)-N4-(3,4-dihydro-3,3-dimethyl-2H,4H-benz[1,4]oxazin-6-yl)-5-fluoro-2,4-pyrimidinediamine]"
< 10,< 10,> 10,–,–,–,"Fc1cnc(Nc2cccc(-c3ncco3)c2)nc1Nc1ccc2c(c1)NCCO2 [Compound 217, N4-(3,4-Dihydro-2H,4H-benz[1,4]oxazin-6-yl)-5-fluoro-N2-[3-(oxazol-2-yl)phenyl]-2,4-pyrimidinediamine]"
< 10,< 10,> 10,–,–,–,"CC1(C)COc2ccc(Nc3nc(Nc4cccc(-c5ncco5)c4)ncc3F)cc2N1 [Compound 218, N4-(3,4-Dihydro-3,3-dimethyl-2H,4H-benz[1,4]oxazin-6-yl)-5-fluoro-N2-[3-(oxazol-2-yl)phenyl]-2,4-pyrimidinediamine]"
–,–,–,< 10,< 10,> 10,O=C1COc2ccc(Nc3nc(Nc4cccc(-c5ncco5)c4)ncc3F)cc2N1 [Compound 219]
–,–,–,< 10,< 10,> 10,O=C1COc2cc(Nc3nc(Nc4cccc(-c5ncco5)c4)ncc3F)ccc2N1 [Compound 220]
–,–,–,< 10,< 10,> 10,O=C1Nc2cc(Nc3nc(Nc4cccc(-c5ncco5)c4)ncc3F)ccc2OC1CCO (stereo not drawn) [Compound 221]
< 10,< 10,> 10,–,–,–,"Fc1cnc(Nc2ccc(-c3cnco3)cc2)nc1Nc1ccc2c(c1)NCCO2 [Compound 222, N4-(3,4-Dihydro-2H,4H-Benz[1,4]oxazin-6-yl)-5-fluoro-N2-[4-(oxazol-5-yl)phenyl]-2,4-pyrimidinediamine]"
< 10,< 10,> 10,–,–,–,"CC1(C)COc2ccc(Nc3nc(Nc4ccc(-c5cnco5)cc4)ncc3F)cc2N1 [Compound 223, N4-(3,4-Dihydro-3,3-dimethyl-2H,4H-benz[1,4]oxazin-6-yl)-5-fluoro-N2-[4-(oxazol-5-yl)phenyl]-2,4-pyrimidinediamine]"
–,–,–,< 10,< 10,> 10,O=C1COc2ccc(Nc3nc(Nc4ccc(-c5cnco5)cc4)ncc3F)cc2N1 [Compound 224]
< 10,< 10,> 10,–,–,–,C[C@@H]1Oc2ccc(Nc3nc(Nc4ccc(-c5cnco5)cc4)ncc3F)cc2NC1=O [Compound 225]
–,–,–,< 10,< 10,> 10,O=C1COc2cc(Nc3nc(Nc4ccc(-c5cnco5)cc4)ncc3F)ccc2N1 [Compound 226]
–,–,–,< 10,< 10,> 10,O=C1Nc2cc(Nc3nc(Nc4ccc(-c5cnco5)cc4)ncc3F)ccc2OC1CCO (stereo not drawn) [Compound 227]
–,–,–,< 10,< 10,> 10,CN1CCOc2ccc(Nc3nc(Nc4ccc(-c5cnco5)cc4)ncc3F)cc21 [Compound 228]
–,–,–,< 10,< 10,> 10,CN1CCOc2cc(Nc3nc(Nc4ccc(-c5cnco5)cc4)ncc3F)ccc21 [Compound 229]
–,–,–,> 10,> 10,> 10,CN1C(=O)COc2cc(Nc3nc(Nc4ccc(-c5cnco5)cc4)ncc3F)ccc21 [Compound 230]
–,–,–,> 10,> 10,> 10,CN1C(=O)COc2ccc(Nc3nc(Nc4ccc(-c5cnco5)cc4)ncc3F)cc21 [Compound 231]
< 10,< 10,> 10,–,–,–,"Fc1cnc(Nc2cccc(-c3cnco3)c2)nc1Nc1ccc2c(c1)NCCO2 [Compound 232, N4-(3,4-Dihydro-2H,4H-benz[1,4]oxazin-6-yl)-5-fluoro-N2-[3-(oxazol-5-yl)phenyl]-2,4-pyrimidinediamine]"
